Data on one molecule can be found in patent publication US20050095287A1, “Fosinopril composition” (priority 2003, published 2005).

This series in a line: Solubility of the active drug (statement). It counts as physicochemical.

In the case of `CCC(=O)O[C@@H](O[P@](=O)(CCCCc1ccccc1)CC(=O)N1C[C@H](C2CCCCC2)C[C@H]1C(=O)O)C(C)C` [Fosinipril, Fosinopril], the solubility result is recorded as “highly soluble”.
